Reference: patent US20130040291A1, “Detection and Quantification of Cellular Stress Response Resolution Pathway Expression and Functionality and the Effects of Agents or Conditions Thereupon” (priority 2011, published 2013)

Assays:
CDNR4 cells [1] = assay: Observation of cells during the adaptive response period after the initial exposure; type: cell-based, murine; conditions: ENU 20 micrograms/ml 1 hour; resolved after 10 to 12 days
Method: (§1) The murine mammary epithelial cells designated CDNR4 were grown in their preferred growth medium (42% DMEM, 42% Hams F-12, 12% FBS, 1% 100×L-glutamine, 1% pen-strep, 0.5% to 1% bovine pituitary extract) until approximately 6 million cells were available. Cells were removed from the expansion flasks, counted, and replated at a rate of 500,000 cells per […] flask in growth medium. The flasks were assigned randomly to one of two groups: a vehicle-alone exposure (control group); an ENU-exposure (treated) group. For flasks of ENU-exposed cells, ENT was added to the growth medium to achieve a final concentration of 20 micrograms per milliliter. For group 1 flasks, a volume of growth medium equal to the volume of ENU was added to the flasks. The cells were exposed to this solution for 1 hour at 37° C.; at the end of this time the solution was removed, the cells were washed with PBS at 37° C., and the cells were re-fed with fresh growth medium.
This drop in pH recurred within six to 12 hours after re-feeding the cells with fresh growth medium. To reduce this problem, all cells (vehicle-exposed and ENU-exposed) were re-fed every day with medium that was buffered with HEPES at a concentration of 25 millimolar. […] This process of increased cell death among ENU-exposed cells resolved after approximately 10 to 12 days. […]

CDNR4 cells [2] = type: cell-based, murine
Method: Following the cessation of the calibrated stress conditions exposure, the SR assay raw data is collected in the form of positive and negative wells (or cell growth sites) and in the form of viable or dead cell clones. The next steps of the assay involve expanding viable clones and determining their phenotypes. When the phenotype of interest being investigated in the SR assay is cell survival, the clones can be sub-classified using the testing listed in Table 6. This testing is performed as follows. Clones are removed from the tissue culture vessels in which they were placed before the start of the calibrated stress conditions exposure (using methods appropriate for the cell type), and subdivided into 4 different aliquots. Each aliquot is re-plated in an appropriate tissue culture vessel in medium containing the following. For one aliquot, the medium is growth medium (conditioned medium may be used) only; for a second aliquot the medium is supplemented with guanosine or folic acid at a concentration sufficient to enhance the survival and expansion of HPRT^− clones; for a third aliquot, the medium contains the same level of agent as used for the calibrated stress condition exposure, and the fourth aliquot is placed in HAT-medium containing an amount of aminopterin that is sufficient to induce growth arrest and/or cell death in Phen-HPRT^− cells of the cell type of interest (see above). Cell morphology (where informative for cell behavior and/or gene expression) and cell growth are monitored over the next 2, to 4 days to determine the response of the cells to these differing conditions. Cell clones can be subjected to additional testing as desired to evaluate further endpoints of interest and/or can be cryopreserved for future evaluations.
To subgroup Phen-ah clones as Phen-alt-rev or Phen-alt-irr, a representative group of these clones is tested further by subjecting the clones to repeated rounds of exposure to the calibrated stress conditions. Other stress inducing agents also may be used. Each exposure cycle is followed by a period of time to allow the cells to recover, and thus, to resolve the stress environment. After each exposure round, the percentage of cells that are resistant to the stress inducing agent or condition is recorded. […] The parental cell response that has been used in the examples below is defined as greater than 99% sensitivity to the calibrated stress conditions agent or condition, as evidenced by cell cycle arrest and/or cell death following exposure to the SR induction agent. Other stress response endpoints may be used and will depend upon the nature of the stress inducing agent used; these endpoints are incorporated herein.
as §1, with “For flasks of ENU-exposed cells, ENT was added to the growth medium to achieve a final concentration of 20 micrograms per milliliter.” left out
At the end of 2 weeks, the cells were removed from the flasks with trypsin/EDTA and passed through a 20 to 25 micron pore size sterile Nytran filter. The cell suspension was evaluated by light microscopy for evidence of large clumps, and was re-filtered if necessary using a new sterile Nytran filter of the same size to remove any apparent large clumps of cells. […]

[3] = ENU 2.0 micrograms/ml 1 hour (so in the source), 2-week expression period, 6-TG stress
[4] = ENU-exposed, average 6 out of 38 clones

CCN(N=O)C(N)=O [ENU, ethylnitrosourea]
cell death among ENU-exposed flasks during adaptive response period (CDNR4 cells [1]): slight non-significant increase in cell death | CE / mutant frequency of Phen-HPRT^− clones (CDNR4 cells [2]; [3]): 160±40 ×10^−6 | CE of Phen-alt-irr clones (CDNR4 cells [2]; [3]): 690±170 ×10^−6 | CE of Phen-alt-rev clones (CDNR4 cells [2]; [3]): 180±130 ×10^−6 | CE of Phen-parental clones (CDNR4 cells [2]; [3]): 95±20 ×10^−6 | reduction in total pro-survival pathway function, ENU-exposed versus vehicle-exposed (CDNR4 cells [2]; ENU 20 micrograms/ml 1 hour): ~3 fold | fCEs for all surviving cell clones (total pro-survival pathway function) (CDNR4 cells [2]; ENU 20 micrograms/ml 1 hour, 6-TG 30 micrograms/ml 4 days, 600 cells per well): 1210±380 ×10^−6 | surviving population with damage, Phen-alt-rev clones included (CDNR4 cells [2]; ENU-exposed): 92% | average CE for Phen-Hprt- and Phen-alt clones, Phen-alt-rev clones included (CDNR4 cells [2]; ENU-exposed cells): 1100±350 ×10^−6 | combined average fCE of Phen-parental and Phen-alt-rev clones (CDNR4 cells [2]; ENU-exposed cells): 280±150 ×10^−6 | average fCE for Phen-Hprt^− clones and Phen-alt clones together (damage tolerance pathway function) (CDNR4 cells [2]; ENU-exposed cells, without Phen-alt-rev clones): 870±220 ×10^−6 | effect per unit dose of the calibrated stress conditions exposure upon CEs for Phen-parental clones (CDNR4 cells [2]; ENU-exposed cells, 95÷35 micrograms 6-TG): 2.7 CE/microgram 6-TG | post-calibrated stress condition fCEs (CDNR4 cells [2]; ENU-exposed cells, SRID-10% of 6-TG (Example 5)): 95 ×10^−6 | surviving population with permanent genomic changes (CDNR4 cells [2]; ENU-exposed, Hprt mutations plus irreversible phenotypic alterations): 75% | Phen-parental clones as share of the final surviving treated cell population (CDNR4 cells [2]; ENU-exposed, average 3 out of 38 clones): 9% | surviving clones with evidence of DNA damage in the Hprt gene (CDNR4 cells [2]; [4]): 15% | surviving clones with reversible phenotypic alterations (CDNR4 cells [2]; [4]): 17% | surviving clones with irreversible phenotypic changes (Phen-alt-irr) (CDNR4 cells [2]; ENU-exposed, average 23 out of 38 clones): 60% | total survival frequency (CDNR4 cells [2]; ENU-treated cells, calibrated stress conditions at SRID-70% to 80%): approximately 128 ×10^−6 | reduction in damage avoidance pathway function, Phen-parental clones only (CDNR4 cells [2]; treated versus control cells): approximately 25 fold | reduction in damage avoidance pathway function, Phen-parental and Phen-alt-rev together (CDNR4 cells [2]; versus Phen-parental fCE of control cells): 12 fold
